Experimental findings from ChEMBL document CHEMBL1201862, “PubChem BioAssay data set” (2004) are described below.

Calls of active or inactive are those of the source. Some results are limits rather than exact numbers.

Assay type in all cases: functional
Test [1] can be described thus: Luminescence Cell-Based Dose Confirmation HTS to Identify Inhibitors of Platelet Dense Granule Release. [Related pubchem assays: 1663 (Primary HTS), 1678 (Summary of Project)].
Test [2] concerns the target T1, High affinity choline transporter 1 (Homo sapiens, UniProt Q9GZV3).
T1 sequence (Q9GZV3 whole entry): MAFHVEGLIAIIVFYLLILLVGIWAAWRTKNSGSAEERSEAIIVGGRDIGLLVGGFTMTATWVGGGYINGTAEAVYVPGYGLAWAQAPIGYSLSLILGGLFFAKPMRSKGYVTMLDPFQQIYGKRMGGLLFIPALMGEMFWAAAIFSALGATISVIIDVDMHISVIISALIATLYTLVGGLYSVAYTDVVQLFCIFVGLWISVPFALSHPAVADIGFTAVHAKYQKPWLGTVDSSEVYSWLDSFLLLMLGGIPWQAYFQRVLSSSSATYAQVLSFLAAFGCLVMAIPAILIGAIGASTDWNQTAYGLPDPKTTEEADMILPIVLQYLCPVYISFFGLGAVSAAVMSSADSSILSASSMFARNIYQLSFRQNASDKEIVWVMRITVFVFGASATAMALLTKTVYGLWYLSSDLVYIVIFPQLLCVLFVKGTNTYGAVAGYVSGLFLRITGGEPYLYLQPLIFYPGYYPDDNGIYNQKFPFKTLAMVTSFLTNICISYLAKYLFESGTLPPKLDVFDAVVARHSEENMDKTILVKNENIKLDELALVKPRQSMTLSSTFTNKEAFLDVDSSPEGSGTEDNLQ
The test can be described thus: CHT inhibitors, dose response, cell-based, 5-point CRC, membrane potential dye (AID 504840).

Test [3] concerns the target T1, High affinity choline transporter 1. The test can be described thus: CHT inhibitors, dose response, cell-based, 10-point CRC, membrane potential dye (AID 588401).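 Note: membrane potential dye fluorescence of choline-evoked depolarization via CHT.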
The next test deals with Melanocortin receptor 4 (Homo sapiens, UniProt P32245). The test can be described thus: MC4R antagonist potency on cAMP, dose response, cell-based, TR-FRET, biased antagonists (AID 602298).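 Note: antagonist potency against agonist-stimulated cAMP production.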
Test [4] can be described thus: nonselective inhibitors of cellular cAMP signaling, dose response, counter-screen for MC4R biased antagonist project, cell-based, TR-FRET cAMP detection (AID 602305).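 Note: U2OS cells stimulated with forskolin near its EC80 as the cAMP inducer; potency is for inhibition of forskolin-stimulated cAMP signaling.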 On the technique in general: The purpose of a counterscreen is to sort out artefacts and off-target activity.

Broadly, the EC50 is the concentration that produces a half-maximal response. As a reminder, the IC50 is the concentration that gives 50% inhibition.

Chain of Melanocortin receptor 4 (P32245 whole entry): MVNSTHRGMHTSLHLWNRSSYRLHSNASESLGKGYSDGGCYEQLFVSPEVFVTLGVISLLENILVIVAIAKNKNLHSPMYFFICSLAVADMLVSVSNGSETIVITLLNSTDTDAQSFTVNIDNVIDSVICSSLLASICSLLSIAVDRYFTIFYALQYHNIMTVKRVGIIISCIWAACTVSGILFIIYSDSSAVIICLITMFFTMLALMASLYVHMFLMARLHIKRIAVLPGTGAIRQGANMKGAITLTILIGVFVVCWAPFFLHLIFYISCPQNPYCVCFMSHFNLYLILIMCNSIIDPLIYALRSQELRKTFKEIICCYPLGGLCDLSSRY

Turning to `Nc1ncnc2c1ncn2[C@@H]1O[C@H](CO)[C@@H](O)[C@H]1O` [ADENOSINE], the EC50 in test [1] was 759 nM (active). Also, the values for the IC50 in test [2] and in test [3] were 571 nM (active) and 200 nM (active), respectively.
As for `CCN(CC)C(=O)C(C)N(C#N)c1nc(Cl)nc(N(C)C)n1` (stereo not given), the IC50 (on Melanocortin receptor 4; in test [4]) was > 64600 nM (inactive) in each case.
